Measurements taken from patent US11739101B2, “Bifunctional degraders of hematopoietic progenitor kinase and therapeutic uses thereof” (Nurix Therapeutics, Inc., priority 2020, dated 2023).

biological target: T1, HPK1 (Homo sapiens, UniProt Q92918); test: HPK1 Cellular HiBiT Degradation Assay; type: cell-based; conditions: HiBiT-tagged HPK1 Jurkat cells, 24 hours, 10 uM to 0.1 nM; Dmax = 100 minus lowest % HPK1 remaining vs DMSO vehicle
T1 construct: A HiBiT tag was introduced by CRISPR on the N terminus of HPK1 in Jurkat cells; host or cells: Jurkat (ATCC TIB-152), monoclonal CRISPR HiBiT knock-in line
T1 sequence (Q92918 whole entry): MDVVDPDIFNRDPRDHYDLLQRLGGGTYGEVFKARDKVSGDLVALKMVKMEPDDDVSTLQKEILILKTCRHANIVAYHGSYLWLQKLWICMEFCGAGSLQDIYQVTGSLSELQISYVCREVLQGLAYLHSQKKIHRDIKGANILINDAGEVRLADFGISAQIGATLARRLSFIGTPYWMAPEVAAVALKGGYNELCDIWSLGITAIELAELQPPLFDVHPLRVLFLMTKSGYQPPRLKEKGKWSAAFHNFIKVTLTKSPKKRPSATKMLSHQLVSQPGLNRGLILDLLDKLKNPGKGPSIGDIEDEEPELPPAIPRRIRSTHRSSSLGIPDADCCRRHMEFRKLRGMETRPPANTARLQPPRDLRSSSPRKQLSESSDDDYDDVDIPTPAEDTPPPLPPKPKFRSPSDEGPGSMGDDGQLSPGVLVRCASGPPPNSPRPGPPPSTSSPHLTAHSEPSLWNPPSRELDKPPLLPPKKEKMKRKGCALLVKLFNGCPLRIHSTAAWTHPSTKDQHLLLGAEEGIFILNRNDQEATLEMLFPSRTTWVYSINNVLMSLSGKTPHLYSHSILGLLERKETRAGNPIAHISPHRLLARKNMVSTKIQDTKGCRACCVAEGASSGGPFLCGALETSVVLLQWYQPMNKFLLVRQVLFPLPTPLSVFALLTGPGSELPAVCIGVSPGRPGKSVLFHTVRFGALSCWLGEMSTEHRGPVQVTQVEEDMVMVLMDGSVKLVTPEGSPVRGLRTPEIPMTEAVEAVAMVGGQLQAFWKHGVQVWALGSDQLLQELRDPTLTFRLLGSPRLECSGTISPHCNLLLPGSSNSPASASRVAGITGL
Experimental: HiBiT HPK1 Jurkat cell lines were used to evaluate the total protein levels of HPK1 in a robust human cellular high throughput format. The level of HPK1 remaining following treatment with HPK1 CTMs is reported as Dmax (maximum degradation) achieved at 24 hours when compared to vehicle treated controls. […] These decreases were not a result of cytotoxicity measured by a parallel viability assessment (CTG). See also Table 1.
A HiBiT tag was introduced by CRISPR on the N terminus of HPK1 in Jurkat cells (ATCC® TIB-152) to allow quantitation of HPK1 protein levels in a monoclonal human cell line. Cells were plated at 1×10^6 cells/mL, 30 uL/well (3×10^4 cells/well) in complete RPMI 1640 (10% heat inactivated FBS, 1% L-glutamine) in 384-well assay plates (Corning, cat. no. 3570). HPK1 chimeric targeting molecules (CTMs) were added in an 11-point dilution series (3.16-fold) with a final assay concentration range of 10 uM to 0.1 nM. The parental Jurkat cell line, with no HiBiT insertion, was included in the assay as a background control. Cells treated with a DMSO vehicle control were used to determine the maximum signal defining 100% HPK1 in the cell. Cells were incubated for 24 hours at 37° C./5% CO2. Following incubation, 30 uL of complete Nano-Glo HiBiT Lytic Detection Reagent (Promega cat. no. N3040) was added. Cells were incubated for 10 minutes at room temperature and luminescence was read on an EnVision plate reader (Perkin Elmer, 0.1 sec per well). Parallel plates were assessed for viability using Cell Titer Glo (Promega) and read on an EnVision plate reader to ensure results were not the effect of cytotoxicity. Percent HPK1 remaining per sample was calculated as follows: […]
% HPK1 remaining values were plotted as a function of compound concentration and curves were fit using the Prism (GraphPad) equation “log(inhibitor) vs response−Variable slope (four parameters)”. Dmax values were calculated by identifying the lowest % remaining and subtracting from 100. Dmax values are provided in Table 1, wherein A>65%, 45%≤B≤65% and C<45%.

SMILES	Dmax [%]	Cellular HPK1 HiBiT: Dmax (%)
Cc1cc(F)c(Nc2nc(-c3ccc4c(c3)N([C@H]3C[C@@H](N5CCCCC5)C3)C(=O)C43CCN(C(=O)CCC4CCN(CC(=O)N[C@H](C(=O)N5C[C@H](O)C[C@H]5C(=O)N[C@@H](C)c5ccc(-c6scnc6C)cc5)C(C)(C)C)CC4)CC3)cc3ncn(C(C)C)c23)cc1C(=O)NC(C)C [Example 14, (2S,4R)-1-((S)-2-(2-(4-(3-(6-(4-((2-fluoro-5-(isopropylcarbamoyl)-4-methylphenyl)amino)-3-isopropyl-3H-imidazo[4,5-c]pyridin-6-yl)-2-oxo-1-((1s,3s)-3-(piperidin-1-yl)cyclobutyl)spiro[indoline-3,4′-piperidin]-1′-yl)-3-oxopropyl)piperidin-1-yl)acetamido)-3,3-dimethylbutanoyl)-4-hydroxy-N—((S)-1-(4-(4-methylthiazol-5-yl)phenyl)ethyl)pyrrolidine-2-carboxamide]	45 to 65	
Cc1cc(F)c(Nc2nc(-c3ccc4c(c3)N([C@H]3C[C@@H](N5CCCCC5)C3)C(=O)C43CCN(C(=O)CCCCCCCC(=O)N[C@H](C(=O)N4C[C@H](O)C[C@H]4C(=O)N[C@@H](C)c4ccc(-c5scnc5C)cc4)C(C)(C)C)CC3)cc3ncn(C(C)C)c23)cc1C(=O)NC(C)C [Example 10, (2S,4R)-1-((S)-2-(9-(6-(4-((2-fluoro-5-(isopropylcarbamoyl)-4-methylphenyl)amino)-3-isopropyl-3H-imidazo[4,5-c]pyridin-6-yl)-2-oxo-1-((1s,3s)-3-(piperidin-1-yl)cyclobutyl)spiro[indoline-3,4′-piperidin]-1′-yl)-9-oxononanamido)-3,3-dimethylbutanoyl)-4-hydroxy-N—((S)-1-(4-(4-methylthiazol-5-yl)phenyl)ethyl)pyrrolidine-2-carboxamide]	> 65	
Cc1cc(F)c(Nc2nc(-c3ccc4c(c3)N(C3CC(N5CCCCC5)C3)C(=O)C43CCN(C(=O)CCCCCCCCCC(=O)N[C@H](C(=O)N4C[C@H](O)C[C@H]4C(=O)N[C@@H](C)c4ccc(-c5scnc5C)cc4)C(C)(C)C)CC3)cc3ncn(C(C)C)c23)cc1C(=O)NC(C)C (stereo partly drawn) [Example 8, (2S,4R)-1-((S)-2-(11-(6-(4-((2-fluoro-5-(isopropylcarbamoyl)-4-methylphenyl)amino)-3-isopropyl-3H-imidazo[4,5-c]pyridin-6-yl)-2-oxo-1-((1s,3s)-3-(piperidin-1-yl)cyclobutyl)spiro[indoline-3,4′-piperidin]-1′-yl)-11-oxoundecanamido)-3,3-dimethylbutanoyl)-4-hydroxy-N—((S)-1-(4-(4-methylthiazol-5-yl)phenyl)ethyl)pyrrolidine-2-carboxamide]		A (A>65%)
Cc1cc(F)c(Nc2nc(-c3ccc4c(c3)N([C@H]3C[C@@H](N5CCCCC5)C3)C(=O)C43CCN(C(=O)c4ccc(OC5CCN(c6ccc7c(c6)C(=O)N(C6CCC(=O)NC6=O)C7=O)CC5)cc4)CC3)cc3ncn(C(C)C)c23)cc1C(=O)NC(C)C (stereo partly shown) [Example 64, 5-{[6-(1′-{4-[(1-{2-[2,6-dioxopiperidin-3-yl]-1,3-dioxo-2,3-dihydro-1H-isoindol-5-yl}piperidin-4-yl)oxy]benzoyl}-2-oxo-1-[(1s,3s)-3-(piperidin-1-yl)cyclobutyl]-1,2-dihydrospiro[indole-3,4′-piperidin]-6-yl)-3-(propan-2-yl)-3H-imidazo[4,5-c]pyridin-4-yl]amino}-4-fluoro-2-methyl-N-(propan-2-yl)benzamide]	> 65	
Cc1cc(F)c(Nc2nc(-c3ccc4c(c3)N([C@H]3C[C@@H](N5CCCCC5)C3)C(=O)C43CCN(C(=O)C4CCN(CC5CCN(c6cccc7c6C(=O)N(C6CCC(=O)NC6=O)C7=O)CC5)C4)CC3)cc3ncn(C(C)C)c23)cc1C(=O)NC(C)C (stereo partly shown) [Example 38, 5-[(6-{1′-[1-[(1-{2-[2,6-dioxopiperidin-3-yl]-1,3-dioxo-2,3-dihydro-1H-isoindol-4-yl}piperidin-4-yl)methyl]pyrrolidine-3-carbonyl]-2-oxo-1-[(1s,3s)-3-(piperidin-1-yl)cyclobutyl]-1,2-dihydrospiro[indole-3,4′-piperidin]-6-yl}-3-(propan-2-yl)-3H-imidazo[4,5-c]pyridin-4-yl)amino]-4-fluoro-2-methyl-N-(propan-2-yl)benzamide]	> 65	
CC(=O)N1CCC2(CC1)C(=O)N([C@H]1C[C@@H](N3CCC[C@@H](C(=O)NCCCCCCCCCOc4cc(-c5scnc5C)ccc4CNC(=O)[C@@H]4C[C@@H](O)CN4C(=O)[C@@H](NC(=O)C4(F)CC4)C(C)(C)C)C3)C1)c1cc(-c3cc4ncn(C(C)C)c4c(Nc4cc(C(=O)NC(C)C)c(C)cc4F)n3)ccc12 [Example 17, (R)-1-((1s,3s)-3-(1′-acetyl-6-(4-((2-fluoro-5-(isopropylcarbamoyl)-4-methylphenyl)amino)-3-isopropyl-3H-imidazo[4,5-c]pyridin-6-yl)-2-oxospiro[indoline-3,4′-piperidin]-1-yl)cyclobutyl)-N-(9-(2-(((2S,4R)-1-((S)-2-(1-fluorocyclopropane-1-carboxamido)-3,3-dimethylbutanoyl)-4-hydroxypyrrolidine-2-carboxamido)methyl)-5-(4-methylthiazol-5-yl)phenoxy)nonyl)piperidine-3-carboxamide]	< 45	
Cc1cc(F)c(Nc2nc(-c3ccc4c(c3)N([C@H]3C[C@@H](N5CCCCC5)C3)C(=O)C43CCN(C(=O)CCCCCCCCCOc4cc(-c5scnc5C)ccc4CNC(=O)[C@@H]4C[C@@H](O)CN4C(=O)[C@@H](NC(=O)C4(F)CC4)C(C)(C)C)CC3)cc3ncn(C(C)C)c23)cc1C(=O)NC(C)C [Example 6, (2S,4R)—N-(2-((10-(6-(4-((2-fluoro-5-(isopropylcarbamoyl)-4-methylphenyl)amino)-3-isopropyl-3H-imidazo[4,5-c]pyridin-6-yl)-2-oxo-1-((1s,3s)-3-(piperidin-1-yl)cyclobutyl)spiro[indoline-3,4′-piperidin]-1′-yl)-10-oxodecyl)oxy)-4-(4-methylthiazol-5-yl)benzyl)-1-((S)-2-(1-fluorocyclopropane-1-carboxamido)-3,3-dimethylbutanoyl)-4-hydroxypyrrolidine-2-carboxamide]	< 45	

The next lines start with results.

Dmax [%]	SMILES	Cellular HPK1 HiBiT: Dmax (%)
45 to 65	Cc1cc(F)c(Nc2nc(-c3ccc4c(c3)N([C@H]3C[C@@H](N5CCCCC5)C3)C(=O)C43CCN(C(=O)C4CCN(C(=O)C5CCN(c6cccc7c6C(=O)N(C6CCC(=O)NC6=O)C7=O)CC5)C4)CC3)cc3ncn(C(C)C)c23)cc1C(=O)NC(C)C (mixture of isomers) [Example 25, 5-[(6-{1′-[1-(1-{2-[(3RS)-2,6-dioxopiperidin-3-yl]-1,3-dioxo-2,3-dihydro-1H-isoindol-4-yl}piperidine-4-carbonyl)pyrrolidine-3-carbonyl]-2-oxo-1-[(1s,3s)-3-(piperidin-1-yl)cyclobutyl]-1,2-dihydrospiro[indole-3,4′-piperidin]-6-yl}-3-(propan-2-yl)-3H-imidazo[4,5-c]pyridin-4-yl)amino]-4-fluoro-2-methyl-N-(propan-2-yl)benzamide]	
> 65	Cc1cc(F)c(Nc2nc(-c3ccc4c(c3)N([C@H]3C[C@@H](N5CCCCC5)C3)C(=O)C43CCN(C(=O)C4CN(CC5CCN(c6cccc7c6C(=O)N(C6CCC(=O)NC6=O)C7=O)CC5)C4)CC3)cc3ncn(C(C)C)c23)cc1C(=O)NC(C)C (stereo partly shown) [Example 33, 5-{[6-(1′-{1-[(1-{2-[2,6-dioxopiperidin-3-yl]-1,3-dioxo-2,3-dihydro-1H-isoindol-4-yl}piperidin-4-yl)methyl]azetidine-3-carbonyl}-2-oxo-1-[(1s,3s)-3-(piperidin-1-yl)cyclobutyl]-1,2-dihydrospiro[indole-3,4′-piperidin]-6-yl)-3-(propan-2-yl)-3H-imidazo[4,5-c]pyridin-4-yl]amino}-4-fluoro-2-methyl-N-(propan-2-yl)benzamide]	
< 45	Cc1cc(F)c(Nc2nc(-c3ccc4c(c3)N([C@H]3C[C@@H](N5CCCCC5)C3)C(=O)C43CCN(C(=O)C4CCN(C(=O)C5CC(Nc6cccc7c6C(=O)N(C6CCC(=O)NC6=O)C7=O)C5)C4)CC3)cc3ncn(C(C)C)c23)cc1C(=O)NC(C)C (stereo partly shown) [Example 30, 4-fluoro-2-methyl-5-[(6-{2-oxo-1-[(1s,3s)-3-(piperidin-1-yl)cyclobutyl]-1′-[1-[(1s,3s)-3-({2-[2,6-dioxopiperidin-3-yl]-1,3-dioxo-2,3-dihydro-1H-isoindol-4-yl}amino)cyclobutanecarbonyl]pyrrolidine-3-carbonyl]-1,2-dihydrospiro[indole-3,4′-piperidin]-6-yl}-3-(propan-2-yl)-3H-imidazo[4,5-c]pyridin-4-yl)amino]-N-(propan-2-yl)benzamide]	
